Laboratory results: PMC6332448, “SAR Studies Leading to the Identification of a Novel Series of Metallo-β-lactamase Inhibitors for the Treatment of Carbapenem-Resistant Enterobacteriaceae Infections That Display Efficacy in an Animal Infection Model” (ACS Infectious Diseases, 2018)
Where “and” joins values, the source holds several entries; their conditions need not be identical. Identical values can stand only once. Like-named read-outs stand apart in the source and are kept apart here.

Tests used:
VIM-1 = VIM-1 (Pseudomonas aeruginosa, UniProt A0A0F7KYQ8); test: biochemical; assay type: biochemical; details: for inhibition of VIM-1, in words: tested up to 200 μM
VIM-2 = VIM-2 (Escherichia coli, UniProt Q5U7L7); test: biochemical
NDM-1 = NDM-1 (Klebsiella pneumoniae, UniProt C7C422); test: biochemical; assay type: biochemical; details: for IC50: 10 mM HEPES pH 7.5, 25 °C, average of at least two independent assays; for inhibition of NDM-1, in words: tested up to 200 μM
Chain of NDM-1 (C7C422 29-270, looked up, species assumed): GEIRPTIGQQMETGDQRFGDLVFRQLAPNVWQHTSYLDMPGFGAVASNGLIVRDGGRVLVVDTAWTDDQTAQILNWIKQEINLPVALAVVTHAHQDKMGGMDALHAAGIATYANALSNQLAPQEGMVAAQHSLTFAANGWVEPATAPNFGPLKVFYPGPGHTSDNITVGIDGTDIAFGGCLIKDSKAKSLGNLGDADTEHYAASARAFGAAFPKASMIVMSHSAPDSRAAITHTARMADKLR

IMP-1 = IMP-1 (Serratia marcescens, UniProt P52699); test: biochemical; assay type: biochemical; details: for inhibition of IMP-1, in words: tested up to 200 μM
Chain of IMP-1 (P52699 19-246, looked up, species assumed): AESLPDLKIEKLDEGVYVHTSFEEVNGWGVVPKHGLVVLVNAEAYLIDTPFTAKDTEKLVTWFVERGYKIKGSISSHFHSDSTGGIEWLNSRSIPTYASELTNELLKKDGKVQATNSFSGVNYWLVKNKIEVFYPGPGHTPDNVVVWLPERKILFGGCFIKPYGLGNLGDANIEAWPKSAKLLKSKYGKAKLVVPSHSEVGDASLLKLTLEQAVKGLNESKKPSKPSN

[1] = tested on: NDM-1-producing strain Escherichia coli NTBC121; test: Whole-cell meropenem potentiation, CLSI broth microdilution MIC; assay type: cell-based; details: no inhibitor, E. coli NTBC121 (NDM-1)
Description: (§1) Minimal inhibitory concentrations (MIC) were determined using the Clinical Laboratory Standards Institute (CLSI) broth microdilution procedure. MBL-positive Enterobacteriaceae clinical isolates tested in the susceptibility study included NDM-1-producing strain E. coli NTBC121, VIM-1-producing strain K. pneumoniae NTBC055, and IMP-1-producing strain K. pneumoniae NTBC062. (Individual MICs for all strains tested are presented in Table 2 and Table 1 in the Supporting Information).

[2] = tested on: VIM-1-producing strain Klebsiella pneumoniae NTBC055; test: as above; assay type: cell-based; details: no inhibitor, K. pneumoniae NTBC055 (VIM-1)
Description: as §1

[3] = tested on: IMP-1-producing strain K. pneumoniae NTBC062; test: as above; assay type: cell-based, Klebsiella pneumoniae; details: no inhibitor, K. pneumoniae NTBC062 (IMP-1)
Description: as §1

[4] = 300 μM imipenem, 10 mM HEPES pH 7.5, 25 °C, average of at least two independent assays, read-out: VIM-1 IC50
[5] = 300 μM imipenem, read-out: NDM-1 IC50
[6] = 300 μM imipenem, 10 mM HEPES pH 7.5, 25 °C, average of at least two independent assays, read-out: IMP-1 IC50

SMILES	IC50 (VIM-1) [µM]	IC50 (NDM-1; NDM-1 IC50, 300 μM imipenem)	IC50 (VIM-1; [4]) [µM]	IC50 (NDM-1; [5]) [µM]	IC50 (IMP-1; [6]) [µM]	other results
Cn1cnc(C(=O)O)c1 [Compound 8]	> 200	> 200 µM				inhibition of VIM-1, in words (VIM-1): no detectable inhibition; IC50 (VIM-2): > 200 µM; inhibition of NDM-1, in words (NDM-1): no detectable inhibition; IC50 (IMP-1): > 200 µM; inhibition of IMP-1, in words (IMP-1): no detectable inhibition
CCCCC(=O)Nc1cccc(C(=O)O)n1 [Compound 26]			> 200	19.4	> 200	
O=C(Cc1ccc(Cl)c(Cl)c1)Nc1cccc(C(=O)O)n1 [Compound 28]			> 200	3.56	82.2	
O=C(O)c1ccc(NS(=O)(=O)Cc2ccccc2)cn1 [Compound 58]			> 200	3.99	> 200	
O=C(O)c1ccc(NS(=O)(=O)c2ccccc2)cn1 [Compound 59]			109	2.17	114	
C[C@@H](O)[C@H]1C(=O)N2C(C(=O)O)=C(S[C@@H]3CN[C@H](C(=O)N(C)C)C3)[C@H](C)[C@H]12 [meropenem, reference compound]						MIC ([1]; Escherichia coli): 32 µg/mL; MIC meropenem (no inhibitor) vs NTBC121 [1]: 32 µg/mL; MIC ([2]; Klebsiella pneumoniae): 16 µg/mL; MIC meropenem (no inhibitor) vs NTBC055 [2]: 16 µg/mL; MIC ([3]; Klebsiella pneumoniae): 4 µg/mL; MIC meropenem (no inhibitor) vs NTBC062 [3]: 4 µg/mL
COc1ccc(C(=O)Nc2cccc(C(=O)O)n2)cc1 [Compound 24]			> 200	20.3	156	
COc1cccc(CC(=O)Nc2ccnc(C(=O)O)c2)c1 [Compound 50]			> 200	35.3	> 200	
O=C(CCc1ccccc1)Nc1cccnc1C(=O)O [Compound 19]			> 200	20.3	34.1	
O=C(O)c1cccc(NC(=O)c2cocn2)n1 [Compound 25]			> 200	55.9	> 200	
O=C(O)c1ncccc1-c1ccoc1 [Compound 13]	> 200	> 200 µM				IC50 (VIM-2): > 200 µM; IC50 (IMP-1): > 200 µM
O=C(O)c1cc2ccccc2cn1 [Compound 11]						inhibition of VIM-1, in words (VIM-1): no inhibition; inhibition of NDM-1, in words (NDM-1): modest inhibition; inhibition of IMP-1, in words (IMP-1): no inhibition
O=C(Cc1cccs1)Nc1cccc(C(=O)O)n1 [Compound 29]			> 200	> 200	> 200	
COc1cccc(S(=O)(=O)Nc2cccc(C(=O)O)n2)c1 [Compound 45]			> 200	43.3	> 200	
CCCCNC(=O)c1cccc(C(=O)O)n1 [Compound 49]			> 200	> 200	> 200	
O=C(O)c1cccc(C(=O)NCc2nccs2)n1 [Compound 48]			> 200	> 200	> 200	
O=C(O)c1cccc(NS(=O)(=O)Cc2ccccc2)n1 [Compound 46]			> 200	43.7	> 200	
O=C(O)c1ncccc1NS(=O)(=O)Cc1ccc(Cl)cc1 [Compound 42]			88.4	18.4	146	
O=C(Cc1ccccc1)Nc1ccc(C(=O)O)nc1 [Compound 56]			> 200	21.4	> 200	
CCCCC(=O)Nc1ccnc(C(=O)O)c1 [Compound 51]			> 200	11.5	> 200	
O=C(O)c1ncccc1NS(=O)(=O)Cc1ccc([N+](=O)[O-])cc1 [Compound 44]			> 200	120	> 200	
N#Cc1cccc(S(=O)(=O)Nc2cccnc2C(=O)O)c1 [Compound 33]			> 200	148	> 200	
O=C(Cc1ccccc1)Nc1ccnc(C(=O)O)c1 [Compound 52]			> 200	11.6	> 200	
O=C(O)c1cccnn1 [Compound 10]	> 200	> 200 µM				inhibition of VIM-1, in words (VIM-1): no detectable inhibition; IC50 (VIM-2): > 200 µM; inhibition of NDM-1, in words (NDM-1): no detectable inhibition; IC50 (IMP-1): > 200 µM; inhibition of IMP-1, in words (IMP-1): no detectable inhibition
CS(=O)(=O)Nc1cccc(C(=O)O)n1 [Compound 47]			> 200	32.8	> 200	

SMILES	IC50 (VIM-1) [µM]	IC50 (NDM-1; NDM-1 IC50, 300 μM imipenem)	IC50 (VIM-1; [4]) [µM]	IC50 (NDM-1; [5]) [µM]	IC50 (IMP-1; [6]) [µM]	other results
O=C(O)c1cccc(-c2ccc(F)c(F)c2)n1 [Compound 16]	> 200	> 200 µM				IC50 (VIM-2): > 200 µM; IC50 (IMP-1): > 200 µM
O=C(O)c1cc(NS(=O)(=O)Cc2ccccc2)ccn1 [Compound 54]			> 200	65	> 200	
CS(=O)(=O)Nc1cccnc1C(=O)O [Compound 31]			> 200	68.8	> 200	
O=C(Cc1c(Cl)cccc1Cl)Nc1cccnc1C(=O)O [Compound 21]			> 200	8.99	> 200	
O=C(Cc1cccs1)Nc1ccnc(C(=O)O)c1 [Compound 53]			> 200	43	> 200	
O=C(O)c1ncccc1NS(=O)(=O)c1ccccc1Cl [Compound 34]			> 200	> 200	> 200	
O=C(O)c1ncccc1NS(=O)(=O)Cc1ccc(Cl)cc1Cl [Compound 71]	17.5	80.6 µM				IC50 (IMP-1): 74.3 µM
O=C(O)c1ccc2ccccc2n1 [Compound 7]	> 200	40.9 µM				inhibition of VIM-1, in words (VIM-1): no inhibition; IC50 (VIM-2): > 200 µM; inhibition of NDM-1, in words (NDM-1): modest inhibition; IC50 (IMP-1): > 200 µM; inhibition of IMP-1, in words (IMP-1): no inhibition
O=C(O)c1ncccc1NS(=O)(=O)Cc1cccc(F)c1 [Compound 36]			108	> 200	152	
O=C(Cc1cccs1)Nc1cccnc1C(=O)O [Compound 23]	133	6.56 µM and 6.6 µM				IC50 (VIM-2): 91.3 µM; IC50 (IMP-1): 146 µM
N#Cc1cccc(S(=O)(=O)Nc2ccc(C(=O)O)nc2)c1 [Compound 60]			> 200	7.2	162	
O=C(O)c1cccc(-c2ccoc2)n1 [Compound 15]	> 200	163 µM				IC50 (VIM-2): > 200 µM; IC50 (IMP-1): > 200 µM
CCCCC(=O)Nc1cccnc1C(=O)O [Compound 20]			> 200	11.1	157	
O=C(Cc1ccc(F)cc1)Nc1ccc(C(=O)O)nc1 [Compound 57]			> 200	27.9	> 200	
O=C(O)c1cnccn1 [Compound 9]	> 200	> 200 µM				inhibition of VIM-1, in words (VIM-1): no detectable inhibition; IC50 (VIM-2): > 200 µM; inhibition of NDM-1, in words (NDM-1): no detectable inhibition; IC50 (IMP-1): > 200 µM; inhibition of IMP-1, in words (IMP-1): no detectable inhibition
O=C(O)c1ncccc1-c1ccncc1 [Compound 12]	> 200	> 200 µM				IC50 (VIM-2): > 200 µM; IC50 (IMP-1): > 200 µM
O=C(O)c1ncccc1NS(=O)(=O)Cc1ccccc1Cl [Compound 67]	10.9	32.6 µM				
O=C(O)c1cc(NS(=O)(=O)c2ccccc2)ccn1 [Compound 55]			> 200	145	> 200	
O=C(O)c1ncccc1NS(=O)(=O)c1ccc(F)cc1 [Compound 35]			> 200	52.1	> 200	
CS(=O)(=O)c1ccc(S(=O)(=O)Nc2cccnc2C(=O)O)cc1 [Compound 30]			> 200	69.9	> 200	
O=C(O)c1ncsc1NS(=O)(=O)c1ccncc1 [Compound 77]	180	3.4 µM				IC50 (VIM-2): 1.8 µM; IC50 (IMP-1): 23.4 µM
O=C(O)c1ncsc1NS(=O)(=O)c1ccccn1 [Compound 75]	> 200	12.9 µM				IC50 (VIM-2): 16.1 µM; IC50 (IMP-1): 114 µM
O=C(O)c1ncccc1NS(=O)(=O)Cc1ccc(Cl)c(Cl)c1 [Compound 69]	> 200	> 200 µM				IC50 (IMP-1): > 200 µM
O=C(Cc1c(Cl)cccc1Cl)Nc1cccc(C(=O)O)n1 [Compound 27]			> 200	> 200	80	
O=C(O)c1ncccc1-c1ccc(F)c(F)c1 [Compound 14]	> 200	> 200 µM				IC50 (VIM-2): > 200 µM; IC50 (IMP-1): > 200 µM
